pIC50: −log10 of the molar value. Structures can show the parent of a compound that is named as a salt.
The molecules below were run on Primary mouse hippocampal neurons (assay: Excitotoxic (glutamate/NMDA-induced) cell death in primary neuronal cultures, protection index). Details: Mus musculus, Hippocampal neuron; third subset; excitotoxic cell death in primary neuronal cultures.
Format: cell-based
Protocol: Primary mouse hippocampal neurons were prepared as previously described (Bading & Greenberg, Science, 1991; 253: 912-914; Zhang et al, Neuron, 2007, 53: 549-562) and maintained in Neurobasal-A medium supplemented with 2% B27, 5 mM L-Glutamax, and 0.5% Penicillin/Streptomycin until challenged with NMDA on days in vitro (DIV) 10. Glutamate-induced cell death was analyzed in a real-time manner by monitoring nuclear localized mCherry with IncuCyte® S3 Live-Cell Analysis System (Sartorius AG, Germany). Primary neurons plated in 24 well plates were infected with rAAV-hSyn-mCherry on DIV3 and challenged with 1 μM or 20 μM glutamate on DIV10. All compounds were added to the culture 30 min prior to glutamate/NMDA insult. Images were acquired following the glutamate application for 24 h with a 2 h interval, where 9-16 images were obtained via a 20×objective for each condition at each time point. Cell deaths were quantified by analyzing the existence of nuclear localized mCheery via the Basic Analyzer with Incucyte® 2021 software, size and average intensity were used as exclusion criteria.
In order to evaluate the protective effects of various compounds, a quantification method was developed to determine each compound's protection index. The protection index (from 0.0 to 10.0) was calculated by the area above the curve (AAC) during a 24 h excitotoxic stimuli, where the cell survival was normalized to the 0 h (FIG. 2), following the equation: […]
Where AAC represents for each compound, AACbasal represents for the basal condition without excitotoxic insult, AACVeh represents for the vehicle control with excitotoxic insult. Based on the equation, vehicle (DMSO) has a protection index at 0.0 and compound P401 of WO 2020/079244 has a protection index at 6.0 (at 10 μM).
The inventors also performed experiments with Group A compounds at lower concentration in a 3-fold dilution matter ([…]: 3.0, 1.0, 0.3, 0.1, 0.03) and were able to achieve a similar protection effect as 10 μM compound P401, but at a lower concentration.

Compound | pIC50
CC(c1cc(Cl)ccc1F)N(CCN)C1CC1 (stereo not drawn) [Compound 243] | 6.52
CC(c1scc(C#N)c1F)N(CCN)C1CC1 (stereo not drawn) [Compound 297, 5-[1-[2-aminoethyl(cyclopropyl)amino]ethyl]-4-fluoro-thiophene-3-carbonitrile TFA salt] | 6.01
C=CCC(c1cccc(Cl)c1F)N(CCN)C1CC1 (stereo not drawn) [Compound 271A, N′-[1-(3-chloro-2-fluoro-phenyl)but-3-enyl]-N′-cyclopropyl-ethane-1,2-diamine TFA salt] | 8.15
CC(c1c(F)ccc(Cl)c1F)N(CCN)C1CC1.Cl (stereo not drawn) [Compound 187] | 5.70
CC(c1cccc(Br)c1F)N(CCN)C1CCC1 (stereo not drawn) [Compound 227B] | 6.52
NCCN(C1CC1)C(c1cccc(Br)c1F)C(F)(F)F (stereo not drawn) [Compound 261A, N′-[1-(3-bromo-2-fluoro-phenyl)-2,2,2-trifluoro-ethyl]-N′-cyclopropyl-ethane-1,2-diamine hydrochloride] | 7.48
CC(c1cc(Cl)cs1)N(CCN)C1CC1 (stereo not drawn) [Compound 279, N′-[1-(4-chloro-2-thienyl)ethyl]-N′-cyclopropyl-ethane-1,2-diamine hydrochloride] | 6.64
NCCN(C1CC1)C(c1cccc(Cl)c1F)C(F)(F)F (stereo not drawn) [Compound 263, N^1-(1-(3-chloro-2-fluorophenyl)-2,2,2-trifluoroethyl)-N^1-cyclopropylethane-1,2-diamine hydrochloride] | 6.59
NCCN(C1CC1)C(c1cccc(Cl)c1F)C1CC1 (stereo not drawn) [Compound 190] | 6.96
CCC(c1cccc(C#N)c1F)N(CCN)C1CC1 (stereo not drawn) [Compound 257, 3-(1-((2-aminoethyl)(cyclopropyl)amino)propyl)-2-fluorobenzonitrile hydrochloride] | 7.96
N#Cc1cccc(CN(CCN)C2CC2)c1F [Compound 219, 3-(((2-aminoethyl)(cyclopropyl)amino)methyl)-2-fluorobenzonitrile hydrochloride] | 6.32
CC(C)C(c1cccc(C#N)c1F)N(CCN)C1CC1 (stereo not drawn) [Compound 264, 3-(1-((2-aminoethyl)(cyclopropyl)amino)-2-methylpropyl)-2-fluorobenzonitrile TFA salt] | 8.52
CCC(c1cccc(Br)c1F)N(CCN)C1CC1 (stereo not drawn) [Compound 258] | 7.89
CC(c1cccc(Br)c1F)N(CCN)C1CC1 (stereo not drawn) [Compound 191, N^1-(1-(3-bromo-2-fluorophenyl)ethyl)-N^1-cyclopropylethane-1,2-diamine hydrochloride] | 6.64

Same assay, conditions: first subset; protection index from area above curve over 24 h glutamate/NMDA insult; compounds added 30 min before; 10 μM, Group A also at lower concentrations

Compound | Biological Activity Rating
CCN(CCN)Cc1cc(Cl)ccc1F [Compound 95] | B (With a protection index between 5.0 to 7.0, provides a comparable protection to compound P401 (10 μM) at 10 μM.)
C=CCN(CCN)Cc1cccc(Cl)c1 [Compound 136] | A (With a protection index over 7.0, provides a significantly better protection over compound P401 (10 μM) at 10 μM.)
NCCN(Cc1cccc(Cl)c1F)CC(F)F [Compound 118, N1-(3-chloro-2-fluorobenzyl)-N1-(2,2-difluoroethyl)ethane-1,2-diamine] | C (With a protection index between 3.0 to 5.0, provides a significantly lower protection compared to compound P401 (10 μM) at 10 μM.)
NCCN(Cc1cccc(Cl)c1F)C1CCC1 [Compound 159, N1-(3-chloro-2-fluorobenzyl)-N1-cyclobutylethane-1,2-diamine dihydrochloride] | A++ (With a protection index between 5.0 to 7.0, provides a comparable protection to compound P401 (10 μM) at 1.0 μM.)
C=CCN(CCN)Cc1cccc(Cl)c1F [Compound 160] | A (With a protection index over 7.0, provides a significantly better protection over compound P401 (10 μM) at 10 μM.)
NCCN(Cc1cccc(Cl)c1)C1CCCCC1 [Compound 124] | B (With a protection index between 5.0 to 7.0, provides a comparable protection to compound P401 (10 μM) at 10 μM.)
NCCN(Cc1cccc(Cl)c1)CC1CCC1 [Compound 135] | B (With a protection index between 5.0 to 7.0, provides a comparable protection to compound P401 (10 μM) at 10 μM.)
NCCN(Cc1cccc(Cl)c1F)CC(F)(F)F [Compound 119, N1-(3-chloro-2-fluorobenzyl)-N1-(2,2,2-trifluoroethyl)ethane-1,2-diamine] | A (With a protection index over 7.0, provides a significantly better protection over compound P401 (10 μM) at 10 μM.)
NCCN(Cc1cccc(Cl)c1)C1CCC1 [Compound 123, N1-(3-chlorobenzyl)-N1-cyclobutylethane-1,2-diamine hydrochloride] | B (With a protection index between 5.0 to 7.0, provides a comparable protection to compound P401 (10 μM) at 10 μM.)
CCN(CCN)Cc1cccc(C#N)c1F [Compound 175, 3-(((2-aminoethyl)(ethyl)amino)methyl)-2-fluorobenzonitrile TFA salt] | A+ (With a protection index between 5.0 to 7.0, provides a comparable protection to compound P401 (10 μM) at 3.0 μM.)

Same assay, conditions: second subset; protection index from area above curve over 24 h glutamate/NMDA insult; compounds added 30 min before; 10 μM, Group A also at lower concentrations

Compound | Biological Activity Rating
CSCCN(CCN)C(C)c1cccc(Cl)c1F (stereo not drawn) [Compound 169, N1-(2-(methylthio)ethyl)-N1-(1-(3-chloro-2-fluorophenyl)ethyl) ethane-1,2-diamine] | B (With a protection index between 5.0 to 7.0, provides a comparable protection to compound P401 (10 μM) at 10 μM.)
CCN(CCN)C(C)c1cccc(Cl)c1 (stereo not drawn) [Compound 109] | A (With a protection index over 7.0, provides a significantly better protection over compound P401 (10 μM) at 10 μM.)
CC(c1cc(Cl)ccc1Cl)N(CCN)C1CC1 (stereo not drawn) [Compound 185, N1-(cyclopropyl)-N1-(1-(2,5-dichlorophenyl)ethyl)ethane-1,2-diamine hydrochloride] | A++ (With a protection index between 5.0 to 7.0, provides a comparable protection to compound P401 (10 μM) at 1.0 μM.)
CC(c1cccc(Cl)c1F)N(CCN)C1CCC1 (stereo not drawn) [Compound 180, N1-(cyclobutyl)-N1-(1-(3-chloro-2-fluorophen, l)ethyl)ethane-1,2-diamine hydrochloride] | A++ (With a protection index between 5.0 to 7.0, provides a comparable protection to compound P401 (10 μM) at 1.0 μM.)
CC(c1cccc(Cl)c1F)N(CCN)C1CC1 (single isomer, unassigned; (+)) [Compound 220A, (+)-N1-(1-(3-chloro-2-fluorophenyl)ethyl)-N1-cyclopropylethane-1,2-diamine] | A++ (With a protection index between 5.0 to 7.0, provides a comparable protection to compound P401 (10 μM) at 1.0 μM.)
CC(c1cc(F)cc(F)c1Cl)N(CCN)C1CC1 (stereo not drawn) [Compound 188, N′-[1-(2-chloro-3,5-difluoro-phenyl)ethyl]-N′-cyclopropyl-ethane-1,2-diamine hydrochloride] | A++ (With a protection index between 5.0 to 7.0, provides a comparable protection to compound P401 (10 μM) at 1.0 μM.)
C=CCN(CCN)C(C)c1cccc(Cl)c1F (stereo not drawn) [Compound 172, N1-allyl-N1-(1-(3-chloro-2-fluorophenyl)ethyl)ethane-1,2-diamine hydrochloride] | A++ (With a protection index between 5.0 to 7.0, provides a comparable protection to compound P401 (10 μM) at 1.0 μM.)

Same assay, conditions: third subset; A++++ or above correlates with IC50; A++ and A+++ as defined in the source

Compound | Biological Activity Rating
CC(c1cc(Cl)ccc1F)N(CCN)C1CC1 (stereo not drawn) [Compound 243] | A+++
CC(c1scc(C#N)c1F)N(CCN)C1CC1 (stereo not drawn) [Compound 297, 5-[1-[2-aminoethyl(cyclopropyl)amino]ethyl]-4-fluoro-thiophene-3-carbonitrile TFA salt] | A+++
CC(c1c(F)ccc(Cl)c1F)N(CCN)C1CC1.Cl (stereo not drawn) [Compound 187] | A++
CC(c1cccc(Br)c1F)N(CCN)C1CCC1 (stereo not drawn) [Compound 227B] | A+++
N#Cc1cccc(CN(CCN)C2CC2)c1F [Compound 219, 3-(((2-aminoethyl)(cyclopropyl)amino)methyl)-2-fluorobenzonitrile hydrochloride] | A+++

Source: patent publication US20250339402A1, “EFFECTIVE MEANS TO MODULATE NMDA RECEPTOR-MEDIATED TOXICITY” (FUNDAMENTAL PHARMA GMBH, priority 2022, published 2025)
